From patent publication US9527850B2, “Benzyl piperidine compounds as lysophosphatidic acid (LPA) receptor antagonist” (Merck Patent GmbH, priority 2011, dated 2016) come the findings set out here.

The test addresses T1, LPA2 receptor (LPA2R) (Homo sapiens, UniProt Q9HBW0).
T1 construct: expressed in transfected cells; host or cells: U2OS
Put plainly: LPA2R-Calciumflux assay (intracellular calcium mobilisation, FLIPR). The format is cell-based. Particulars: U2OS cells recombinant expressing LPA2R; inhibition of LPA-induced Ca-flux; 10 concentrations 30 uM to 1 nM, 1% DMSO. The text has this:
The assay detects intra cellular calcium which is generated by cells upon activation of the LPA2 receptor by its ligand LPA. This transient calcium mobilization can be monitored using a commercial calcium detection kit (e.g. from Molecular Devices). The main component of such a kit is a dye, which becomes fluorescent when calcium is present—a transient fluorescence signal after laddition of a ligand to a test well are the result. Readers like the FLIPR (Molecular Devices) can be used to monitor such transient “Ca-flux” signals.
The signals are calculated according to peak maximum minus base line.
The assay is performed in microplates (384 wells per plate).
LPA2R-Calciumflux Assay Protocol
The assay is run according to the following procedure: • 50 uL seed cells (10000 cells/well in DMEM buffer) • Incubate 24 h at 37° C., 10% CO2 • aspirate medium • 50 uL add calcium dye 1×HBSS/HEPES buffer • incubate 1 h at 37° C. (“loading”) • equilibrate 10 min at RT • 5 uL add compounds in HEPES buffer • shake 10 sec. at 1000 rpm • incubate 15 min at RT • 20 uL add LPA (in the FLIPR Tetra) in Krebs-buffer/BSA & measurement
The cells are seeded in DMEM buffer (DMEM, 10% FCS, 10 mM HEPES, 1% Pen/Strep).
Dye loading is done in HBSS/HEPES buffer (100 mL 10×HBSS+20 mL 1M HEPES+880 mL water, pH 7.4)
The LPA is added in Krebs/BSA buffer (120 mM NaCl, 5 mM KCl, 0.62 mM MgSO4, 1.8 mM CaCl2, 10 mM HEPES, 6 mM D(+)-Glucose, 0.2% BSA, pH 7.4).
The compounds are pre-diluted in HEPES buffer (20 mM, pH 7.4), whereby the final DMSO content in the assay is kept at 1%. The compounds are pre-diluted in order to generate dose response series on the microplates. The dose response series consist of 10 concentrations for each compound from 30 uM final to 1 nM final. From all compound wells the resulting signals are referred to control wells (located on each plate besides the compound wells) in terms of % activity.
From these % activity values—along with the corresponding compound concentrations—IC50 values are fitted for each compound using standard fitting programs such as Graphpad Prism. Here the method “log(inhibitor) vs. response—Variable slope” is used.

SMILES strings stand for the structures. Where only a bound is given, the exact number is not on record here.

T1 sequence (Q9HBW0 whole entry): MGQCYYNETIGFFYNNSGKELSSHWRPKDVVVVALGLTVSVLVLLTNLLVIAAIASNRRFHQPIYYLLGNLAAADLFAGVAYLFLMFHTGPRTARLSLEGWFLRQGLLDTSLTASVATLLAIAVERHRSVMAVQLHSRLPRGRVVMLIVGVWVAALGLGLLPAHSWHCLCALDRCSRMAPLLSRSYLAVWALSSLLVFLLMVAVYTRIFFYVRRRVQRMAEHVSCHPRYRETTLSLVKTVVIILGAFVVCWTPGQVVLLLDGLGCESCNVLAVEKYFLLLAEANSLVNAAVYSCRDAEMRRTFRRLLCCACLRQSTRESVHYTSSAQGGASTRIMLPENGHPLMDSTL

`CCc1nc(CN2CCCCC2c2nc3cc(F)ccc3[nH]2)cs1` (centres unmarked) [compound 121, 2-[1-(2-Ethyl-thiazol-4-ylmethyl)-piperidin-2-yl]-5-fluoro-1H-benzo-imidazole]: the IC50 is < 500 nM. In the case of `Cc1ccc(CN2CCCCC2c2nc3cc(Cl)cc(C)c3[nH]2)cc1C` (centres unmarked) [compound 105], the IC50 was in the range of 500 to 5000 nM. With `COc1ccc(CN2CCC(C)CC2c2cc3cc(F)ccc3[nH]2)cc1` (centres unmarked) [compound 64, 5-Fluoro-2-[1-(4-methoxy-benzyl)-4-methyl-piperidin-2-yl]-1H-indole], the IC50 fell in the range of 500 to 5000 nM. To `Cc1cccc(CN2CCCCC2c2cc3cc(F)cc(F)c3[nH]2)c1` (centres unmarked) [compound 21, 5,7-Difluoro-2-[1-(3-methyl-benzyl)-piperidin-2-yl]-1H-indole] belongs 5000 to 15000 nM. To `Cc1ccc(CN2CCCCC2c2nc3ccc(Br)cc3[nH]2)cc1C` (centres unmarked) [compound 96, 6-Bromo-2-[1-(3,4-dimethyl-benzyl)-piperidin-2-yl]-1H-benzo-imidazole] belongs < 500 nM; to `Cc1cccc(CN2C(C)CCCC2c2cc3cc(F)ccc3[nH]2)c1` (centres unmarked) [compound 30, 5-Fluoro-2-[6-methyl-1-(3-methyl-benzyl)-piperidin-2-yl]-1H-indole], < 500 nM; to `Cc1ccc(CN2CCCCC2c2cc3ccccc3[nH]2)cc1` (centres unmarked) [compound 13, 2-[1-(4-Methyl-benzyl)-piperidin-2-yl]-1H-indole], < 500 nM. Take `COc1cccc(CN2CCCCC2c2cc3cc(F)ccc3[nH]2)c1` (centres unmarked) [compound 109, 5-Fluoro-2-[1-(3-methoxy-benzyl)-piperidin-2-yl]-1H-indole]: the IC50 is < 500 nM. To `Cc1ccc(CN2CCCC[C@@H]2c2cc3cc(F)ccc3[nH]2)cc1C` [compound 138, 2-[(R)-1-(3,4-Dimethyl-benzyl)-piperidin-2-yl]-5-fluoro-1H-indole] belongs < 500 nM.

For the molecule `Fc1ccc(CN2CCCCC2c2nc3cccnc3[nH]2)cc1` (centres unmarked) [compound 130, 2-[1-(4-Fluoro-benzyl)-piperidin-2-yl]-3H-imidazo[4,5-b]pyridine], the IC50 was < 500 nM. For `Fc1ccc(CN2CCCC[C@@H]2c2cc3ccccc3[nH]2)cc1` [compound 125, 2-[(R)-1-(4-Fluoro-benzyl)-piperidin-2-yl]-1H-indole], the IC50 was < 500 nM.

Take `CC(c1ccccc1)N1CCCCC1c1nc2cc(F)ccc2[nH]1` (centres unmarked) [compound 101, 5-Fluoro-2-[1-(1-phenyl-ethyl)-piperidin-2-yl]-1H-benzo-imidazole]: the IC50 was 500 to 5000 nM.

Regarding `N#Cc1cccc(CN2CCCCC2c2cc3cc(F)ccc3[nH]2)c1` (centres unmarked) [compound 86, 3-[2-(5-Fluoro-1H-indol-2-yl)-piperidin-1-ylmethyl]-benzonitrile], the IC50 was in the range of 500 to 5000 nM. To `Cc1ccc(CN2CCCCC2c2nc3ccc(S(N)(=O)=O)cc3[nH]2)cc1C(F)(F)F` (centres unmarked) [compound 117] belongs 500 to 5000 nM. Under `Cc1cc(C)cc(CN2CCCCC2c2cc3cc(F)ccc3[nH]2)c1` (centres unmarked) [compound 84, 2-[1-(3,5-Dimethyl-benzyl)-piperidin-2-yl]-5-fluoro-1H-indole] stands < 500 nM. `Fc1ccc2[nH]c(C3CCCCN3Cc3c[nH]c4ccccc34)cc2c1` (centres unmarked) [compound 63, 5-Fluoro-2-[1-(1H-indol-3-ylmethyl)-piperidin-2-yl]-1H-indole]: the IC50 lay within 500 to 5000 nM. For `CCc1nc(CN2CCCCC2c2cc3cc(F)ccc3[nH]2)cs1` (centres unmarked) [compound 85], the IC50 was < 500 nM. Under `COc1cccc(CN2CCCCC2c2cc3cc(C)ccc3[nH]2)c1` (centres unmarked) [compound 71, 2-[1-(3-Methoxy-benzyl)-piperidin-2-yl]-5-methyl-1H-indole] stands 500 to 5000 nM. For the molecule `Cc1cccc(CN2CCCCC2c2nc3ccc(S(N)(=O)=O)cc3[nH]2)c1` (centres unmarked) [compound 129, 2-[1-(3-Methyl-benzyl)-piperidin-2-yl]-3H-benzo-imidazole-5-sulfonic acid amide], the IC50 was < 500 nM. To `Cc1ccc(CN2CCCC[C@@H]2c2nc3cc(F)ccc3[nH]2)cc1C` [compound 119, 2-[(R)-1-(3,4-Dimethyl-benzyl)-piperidin-2-yl]-5-fluoro-1H-benzo-imidazole] belongs < 500 nM; to `Cc1c(C2CCCCN2Cc2ccc(F)cc2)[nH]c2ccc(F)cc12` (centres unmarked) [compound 75, 5-Fluoro-2-[1-(4-fluoro-benzyl)-piperidin-2-yl]-3-methyl-1H-indole], < 500 nM. Under `CC1CCCC(c2cc3cc(F)ccc3[nH]2)N1Cc1ccc(S(C)(=O)=O)cc1` (centres unmarked) [compound 33] stands 500 to 5000 nM; under `Cc1cc(Cl)cc2nc(C3CCCCN3Cc3ccc4c(c3)C(C)(C)CCC4(C)C)[nH]c12` (centres unmarked) [compound 97, 5-Chloro-7-methyl-2-[1-(5,5,8,8-tetramethyl-5,6,7,8-tetrahydro-naphthalen-2-ylmethyl)-piperidin-2-yl]-1H-benzo-imidazole], 500 to 5000 nM; under `N#Cc1ccc(CN2CCCCC2c2cc3c(F)ccc(F)c3[nH]2)cc1` (centres unmarked) [compound 42, 4-[2-(4,7-Difluoro-1H-indol-2-yl)-piperidin-1-ylmethyl]-benzonitrile], 5000 to 15000 nM. To `Fc1ccc2[nH]c(C3CCCCN3Cc3ccccn3)cc2c1` (centres unmarked) [compound 56, 5-Fluoro-2-(1-pyridin-2-ylmethyl-piperidin-2-yl)-1H-indole] belongs 500 to 5000 nM; to `NS(=O)(=O)c1ccc2nc(C3CCCCN3Cc3cccc(C(F)(F)F)c3)[nH]c2c1` (centres unmarked) [compound 115], 500 to 5000 nM; to `Fc1ccc2[nH]c(C3CCCCN3Cc3cccc(Br)c3)cc2c1` (centres unmarked) [compound 57, 2-[1-(3-Bromo-benzyl)-piperidin-2-yl]-5-fluoro-1H-indole], 500 to 5000 nM. As to `Cc1cccc(CN2CCCCC2c2cc3cc(F)ccc3[nH]2)c1` (centres unmarked) [compound 14, 5-Fluoro-2-[1-(3-methyl-benzyl)-piperidin 2-yl]-1H-indole], the half-maximal inhibitory concentration (IC50) fell in the range of 500 to 5000 nM.

`Cc1ccc(CN2CCCCC2c2cc3cc(F)ccc3[nH]2)cc1` (centres unmarked) [compound 108, 5-Fluoro2-[1-(4-methyl-benzyl)-piperidin-2-yl]-1H-indole]: the IC50 is < 500 nM. Under `Cc1ccc(CN2CCCC[C@H]2c2cc3ccccc3[nH]2)cc1` [Example Compound 143, 2-[(S)-1-(4-Methyl-benzyl)-piperidin-2-yl]-1H-indole] stands > 15000 nM; under `CCOC(=O)c1ccc(CN2CCCCC2c2cc3ccccc3[nH]2)cc1` (centres unmarked) [compound 25, 4-[2-(1H-Indol-2-yl)-piperidin-1-ylmethyl]-benzoic acid ethyl ester], 500 to 5000 nM; under `FC(F)(F)c1ccccc1CN1CCCCC1c1cc2ccccc2[nH]1` (centres unmarked) [compound 16], 5000 to 15000 nM. To `CC(C)n1cc(CN2CCCCC2c2cc3ccccc3[nH]2)c2ccccc21` (centres unmarked) [compound 9, 3-[2-(1H-Indol-2-yl)-piperidin-1-ylmethyl]-1-isopropyl-1H-indole] belongs 500 to 5000 nM; to `Cc1ccc(CN2CCCCC2c2cc3cc(F)cc(F)c3[nH]2)cc1C` (centres unmarked) [compound 23, 2-[1-(3,4-Dimethyl-benzyl)-piperidin-2-yl]-5,7-difluoro-1H-indole], 500 to 5000 nM; to `Cc1ccc(CN2CCCCC2c2nc3ccc(Br)cc3[nH]2)cc1C(F)(F)F` (centres unmarked) [compound 93], 500 to 5000 nM. Under `Cc1ccc(CN2CCCC[C@H]2c2nc3cc(F)ccc3[nH]2)cc1C` [compound 142, 2-[(S)-1-(3,4-Dimethyl-benzyl)-piperidin-2-yl]-5-fluoro-1H-benzo-imidazole] stands < 500 nM. For the molecule `Cc1ccc(CN2CCCCC2c2cc3cc(F)cc(F)c3[nH]2)cc1` (centres unmarked) [compound 22, 5,7-Difluoro-2-[1-(4-methyl-benzyl)-piperidin-2-yl]-1H-indole], the IC50 was in the range of 5000 to 15000 nM.

As to `Cc1ccc2[nH]c(C3CCCCN3Cc3ccc(F)cc3)cc2c1` (centres unmarked) [compound 70], the IC50 was 500 to 5000 nM. Under `Fc1ccc(CN2CCCCC2c2nc3cc(F)ccc3[nH]2)cc1` (centres unmarked) [compound 49, 5-Fluoro-2-[1-(4-fluoro-benzyl)-piperidin-2-yl]-1H-benzo-imidazole] stands < 500 nM; under `Fc1ccc(CN2CCCC[C@H]2c2nc3cc(F)ccc3[nH]2)cc1` [compound 131, 5-Fluoro-2-[(S)-1-(4-fluoro-benzyl)-piperidin-2-yl]-1H-benzo-imidazole], 500 to 5000 nM. Regarding `c1ccc(CN2CCCCC2c2cc3ccccc3[nH]2)cc1` (centres unmarked) [compound 6, 2-(1-Benzyl-piperidin-2-yl)-1H-indole], the IC50 fell in the range of 500 to 5000 nM.

The term IC50 denotes the concentration needed to halve the response being measured.
